Source: patent publication US11260079B2, “Dosing regimens for the mobilization of hematopoietic stem and progenitor cells” (Magenta Therapeutics, Inc., priority 2017, dated 2022)

Tests used:
[1] = system: hematopoietic stem and progenitor cell mobilization; settings: cited from earlier work; for potency of hematopoietic stem and progenitor cell mobilization relative to Gro-β: described in U.S. Pat. Nos. 6,080,398 and 6,447,766
[2] = system: CD34^+ hematopoietic stem and progenitor cells; settings: Rhesus monkeys; plerixafor 1 mg/kg subcutaneously; median value
Description: (§1) Male rhesus macaques were treated with AMD3100 alone or in combination with Gro-β T. Blood was collected immediately prior to and 0.5, 1, 2, 4 and 24 hours after treatment and analyzed by multicolor flow cytometry to quantitate HSPC numbers. Additional aliquots of mobilized blood were plated in methylcellulose and CFU were enumerated seven days later.
The data shown in FIGS. 7 and 8 include the percentage of whole blood accounted for by CD34^+ hematopoietic stem and progenitor cells for each treatment group. Absolute numbers and fold change in CD34^+ cells per μL of peripheral blood were quantified with a single platform quantitative method. Data shown in FIGS. 7 and 8 are expressed as mean±SEM and represent 5 animals per group. Statistical significance was determined based on 2-way ANOVA with post-hoc Dunnett's multiple comparisons test (* p<0.05, ** p<0.01, **** p<0.0001).
The data shown in FIGS. 9 and 10 include the percentage of whole blood accounted for by CD34^+ CD90^+ CD45RA^− hematopoietic stem and progenitor cells for each treatment group. Absolute numbers and fold change in CD34^+ CD90^+ CD45RA^− cells per μL of peripheral blood are shown. Data shown in FIGS. 9 and 10 are expressed as mean±SEM and represent 5 animals per group. Statistical significance was determined based on 2-way ANOVA with post-hoc Dunnett's multiple comparisons test (* p<0.05. **p<0.01, *** p<0.001, **** p<0.0001).
Additional data summarizing the mobilization of CD34^+ cells (e.g., CD34^+ CD90^+ CD45RA^− cells) in Rhesus monkeys using various doses of Gro-beta T and AMD3100 are reported in TABLES 8-11, below. Quantities are reported in TABLES 8-11 using the following notation: “Median value (Minimum value observed−maximum value observed).”

[3] = system: white blood cells, neutrophils, lymphocytes and monocytes; settings: Rhesus monkeys; plerixafor 1 mg/kg subcutaneously; median value
Description: as §1
Animals were mobilized with AMD3100 alone or in combination with Gro-β T. Peripheral blood was collected at the time points shown and white blood cells enumerated on a HESKA Hematology Analyzer. Total number of white blood cells, neutrophils, lymphocytes and monocytes per μL of peripheral blood were determined. Data shown in FIGS. 2-5 are expressed as mean±SEM and represent 5 animals per group. Statistical significance was determined based on 2-way ANOVA with post-hoc Dunnett's multiple comparisons test (** p<0.01).

[4] = system: NOD scid gamma (NSG) mice; experiment: Xenograft GVHD model; format: in vivo; settings: for numbers of T-cells as compared to mice transplanted with Gro-β T and AMD3100-mobilized PBMCs: NSG mice, day 14 post-transplant; for mice died of aGVHD at day 24 / mice remained alive at day 60 post-transplant: sublethally irradiated NSG mice transplanted with 6×10^6 mobilized PBMCs
Description: To assess whether these immunosuppressive cells may prevent GVHD, we developed a xenograft GVHD model in NOD scid gamma (NSG) mice, which are immunodeficient mice. Gro-β T and AMD3100 mobilized peripheral blood (6×10^6 PBMCs) containing a high percentage of CD34^dim cells were injected into sublethally irradiated NSG mice. This was compared to unmobilized primate PBMCs (6×10^6 PBMCs) containing a relatively low numbers of CD34^dim cells and G-CSF mobilized primate PBMCs (6×10^6 PBMCs).

[5] = system: stem and progenitor cells (LT-HSC); experiment: Mobilization of stem and progenitor cells in mice; format: in vivo; settings: 15 minutes after a single injection
CD34^dim cells = experiment: Mobilization of CD34^dim cells, flow cytometry; format: in vivo; settings: Rhesus macaques; 4 hours after the last dose of G-CSF; n=3
Description: Cells were mobilized according to the method of Example 1. A sample of peripheral blood was tested using a flow cytometer for the markers CD34, CD11b, CD14, CD16, CD45, and SSC.
Rhesus macaques were treated with Gro-β T, […], Gro-β T and AMD3100, or G-CSF alone. A sample of peripheral blood was tested using a flow cytometry.

Gro-β N69D: variant of Gro-β with aspartic acid in place of asparagine at position 69 (SEQ ID NO: 3)
potency of hematopoietic stem and progenitor cell mobilization relative to Gro-β [1]: superior potency

c1cc(CN2CCCNCCNCCCNCC2)ccc1CN1CCCNCCNCCCNCC1 [plerixafor, 1,1′-[1,4-phenylenebis(methylene)]-bis-1,4,8,11-tetra-azacyclotetradecane]
Fold increase vs. baseline following sc administration of AMD3100: CD34^+ [2]: 9.1 fold
Fold increase vs. baseline following sc administration of AMD3100: CD34^+ CD90^+ CD54RA^− [2]: 14.9 fold
Quantity of cells observed 4 hours following sc administration of AMD3100: CD34^+ [2]: 41054
Quantity of cells observed 4 hours following sc administration of AMD3100: CD34^+ CD90^+ CD54RA^− [2]: 14820
Ratio of fold increase of CD34^+ CD90^+ CD45RA^− cells to other cell populations: CD34^+ [2]: 1.4
Ratio of fold increase of CD34^+ CD90^+ CD45RA^− cells to other cell populations: Lymphocytes [2]: 5.7
Ratio of fold increase of CD34^+ CD90^+ CD45RA^− cells to other cell populations: Monocytes [2]: 1.6
Ratio of fold increase of CD34^+ CD90^+ CD45RA^− cells to other cell populations: Neutrophils [2]: 3.0
Ratio of fold increase of CD34^+ CD90^+ CD45RA^− cells to other cell populations: WBCs [2]: 3.7
Ratio of fold increase of CD34^+ cells to other cell populations: CD34^+ CD90^+ CD54RA^− [2]: 0.7
Ratio of fold increase of CD34^+ cells to other cell populations: Lymphocytes [2]: 4.0
Ratio of fold increase of CD34^+ cells to other cell populations: Monocytes [2]: 1.2
Ratio of fold increase of CD34^+ cells to other cell populations: Neutrophils [2]: 2.1
Ratio of fold increase of CD34^+ cells to other cell populations: WBCs [2]: 2.3
Ratio of quantity of CD34^+ CD90^+ CD45RA^− cells to other cell populations: CD34^+ [2]: 0.352
Ratio of quantity of CD34^+ CD90^+ CD45RA^− cells to other cell populations: Lymphocytes [2]: 0.0011
Ratio of quantity of CD34^+ CD90^+ CD45RA^− cells to other cell populations: Monocytes [2]: 0.0039
Ratio of quantity of CD34^+ CD90^+ CD45RA^− cells to other cell populations: Neutrophils [2]: 0.0006
Ratio of quantity of CD34^+ CD90^+ CD45RA^− cells to other cell populations: WBCs [2]: 0.0003
Ratio of quantity of CD34^+ cells to other cell populations: CD34^+ CD90^+ CD54RA^− [2]: 2.838
Ratio of quantity of CD34^+ cells to other cell populations: Lymphocytes [2]: 0.0025
Ratio of quantity of CD34^+ cells to other cell populations: Monocytes [2]: 0.0111
Ratio of quantity of CD34^+ cells to other cell populations: Neutrophils [2]: 0.0015
Ratio of quantity of CD34^+ cells to other cell populations: WBCs [2]: 0.0009
Fold increase vs. baseline following sc administration of AMD3100: Lymphocytes [3]: 2.5 fold
Fold increase vs. baseline following sc administration of AMD3100: Monocytes [3]: 7.9 fold
Fold increase vs. baseline following sc administration of AMD3100: Neutrophils [3]: 5.0 fold
Fold increase vs. baseline following sc administration of AMD3100: WBCs [3]: 2.3 fold
Quantity of cells observed 4 hours following sc administration of AMD3100: Lymphocytes [3]: 1.35E+07
Quantity of cells observed 4 hours following sc administration of AMD3100: Monocytes [3]: 3.10E+06
Quantity of cells observed 4 hours following sc administration of AMD3100: Neutrophils [3]: 2.10E+07
Quantity of cells observed 4 hours following sc administration of AMD3100: WBCs [3]: 3.90E+07
numbers of T-cells as compared to mice transplanted with Gro-β T and AMD3100-mobilized PBMCs [4]: approximately 60 fold
mice died of aGVHD at day 24 [4]: 5/16
mice remained alive at day 60 post-transplant [4]: 10/16

Gro-β T: CXCR2 agonist; Gro-β with deletion of the first four amino acids from the N-terminus (SEQ ID NO: 2)
mobilization of stem and progenitor cells [5]: rapid mobilization
potency of hematopoietic stem and progenitor cell mobilization relative to Gro-β [1]: superior to that of Gro-β by multiple orders of magnitude

Gro-β T N65D: variant of Gro-β T with aspartic acid in place of asparagine at position 65 (SEQ ID NO: 4)
potency of hematopoietic stem and progenitor cell mobilization relative to Gro-β T ([1]; described in U.S. Pat. No. 6,447,766): substantially greater than that of Gro-β T

B1: G-CSF: Filgrastim (G-CSF), most common clinical hematopoietic stem cell mobilization protocol (protein, chains of the INN, looked up)
chain: MTPLGPASSLPQSFLLKCLEQVRKIQGDGAALQEKLCATYKLCHPEELVLLGHSLGIPWAPLSSCPSQALQLAGCLSQLHSGLFLYQGLLQALEGISPELGPTLDTLQLDVADFATTIWQQMEELGMAPALQPTQGAMPAFASAFQRRAGGVLVASHLQSFLEVSYRVLRHLAQP
increase over baseline in the number of CD34^dim cells (CD34^dim cells): about a nine-fold increase
numbers of T-cells as compared to mice transplanted with Gro-β T and AMD3100-mobilized PBMCs [4]: approximately 10 fold
mice died of aGVHD at day 24 [4]: 3/16
mice remained alive at day 60 post-transplant [4]: 11/16
